Results: PubChem BioAssay (NCI)
“And” between values parts separate entries of the source, which are not always exact repeats. Equal values may be shown once.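 All cell lines were grown in 96-well plates and treated with compound for 48 hours. GI50 is the concentration that inhibits growth by half. TGI marks complete inhibition of growth.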

What was measured:
Assay in all cases: DTP human tumour cell line panel, 48 h
HL-60(TB) leukemia = test system: HL-60(TB) leukemia
SK-MEL-2 melanoma = test system: SK-MEL-2 melanoma
SK-MEL-5 melanoma = test system: SK-MEL-5 melanoma
A498 renal = test system: A498 renal
HOP-62 NSCLC = test system: HOP-62 NSCLC
TK-10 renal = test system: TK-10 renal
NCI-H460 lung = test system: NCI-H460 lung
K-562 leukemia = test system: K-562 leukemia
NCI/ADR-RES ovarian = test system: NCI/ADR-RES ovarian
MCF7 breast = test system: MCF7 breast

SMILES	TGI (HL-60(TB) leukemia)	TGI (SK-MEL-2 melanoma) [µM]	TGI (SK-MEL-5 melanoma)	TGI (A498 renal)	TGI (HOP-62 NSCLC) [µM]	TGI (TK-10 renal) [µM]	TGI (NCI-H460 lung)	TGI (K-562 leukemia) [µM]	GI50 (NCI/ADR-RES ovarian) [µM]	TGI (NCI/ADR-RES ovarian) [µM]	GI50 (HL-60(TB) leukemia) [µM]	GI50 (SK-MEL-2 melanoma) [µM]	GI50 (SK-MEL-5 melanoma) [µM]	GI50 (MCF7 breast) [µM]	TGI (MCF7 breast) [µM]	GI50 (A498 renal) [µM]	GI50 (HOP-62 NSCLC) [µM]	GI50 (TK-10 renal) [µM]	GI50 (NCI-H460 lung) [µM]	GI50 (K-562 leukemia) [µM]
C[N+](C)(C)CC(=O)N/N=C/c1oc(-c2cccc([N+](=O)[O-])c2)c(-c2cccc([N+](=O)[O-])c2)c1[N+](=O)[O-]	> 100 µM	> 100	> 100 µM	> 100 µM	> 100	> 100	> 100 µM													
Cc1nn2c(=O)n(-c3cccc(-n4nnc5c(-c6ccccc6)c(C)nn5c4=O)c3C)nnc2c1-c1ccccc1	87.9 µM	17.5	33.8 µM	> 100 µM	> 100	> 100	50.1 µM	> 100												
CCOC(=O)C1=C(C)NC(C)=C(C(=O)OCC)C1c1cc(Br)c(O)c(OC)c1	6.35 µM	20.1	14.6 µM	7.13 µM	14.7	39.2	14.4 µM		2.71	9.4	2.35	5.29	3.61	4.41	23.9	2.19	4.37	9.54	3.98	
COc1ccc(-c2nnc(Nc3nc(O)c(C4=c5cc(OC(F)(F)F)ccc5=NC4=O)s3)o2)cc1	47.7 µM	39.3	42.9 µM		30.3	58.2	> 100 µM	30.4	20.2	75.4	26.6	20.3	17.7	39.7	> 100		15.7	20.5	22	14.4
CN=c1ss/c(=N\C(=S)N(C)C)n1C1CCCCC1	> 100 µM	> 31.6	> 31.6 µM	> 31.6 µM	> 100	> 31.6	> 31.6 µM	> 31.6												
CN(C(=O)C12C3C4C1C1C2C3C41C(=O)N(C)C(C)(C)C)C(C)(C)C (stereo not given)	> 50 µM		> 50 µM	> 50 µM	> 50			> 50												
O=C(Cc1nc2ccc(C(=O)c3ccccc3)cc2[nH]c1=O)C(=O)Nc1ccc(C(F)(F)F)cc1[N+](=O)[O-]	> 100 µM	> 100	> 100 µM	> 100 µM	> 100	> 100	> 100 µM	> 100												
COc1cc(-c2nccc3[nH]c(-c4cccc5[nH]ccc45)nc23)cc(OC)c1OC	< 0.01 µM	23.5	0.0108 µM			24.8	1.11 µM		< 0.01	18.1	< 0.01	< 0.01	< 0.01	< 0.01	14.4			12.1	< 0.01	
CC[C@@]1(OC(=O)C(N)CCC(=O)O)C(=O)OCc2c1cc1n(c2=O)Cc2cc3ccccc3nc2-1 (stereo not given in full)	0.508 µM	3.44	0.36 µM	0.965 µM	0.125	> 100		> 100		0.297					> 100					
NC(Cn1ccc(=O)c(O)c1)C(=O)O (stereo not given)	> 100 µM	> 100	> 100 µM	> 100 µM	> 100	> 100	> 100 µM			> 100					> 100					
Cc1ccc(SC2C(C)(C)N(C(C)C)P2(=O)N(C(C)C)C(C)C)cc1 (stereo not given)	41.9 µM	> 100	> 100 µM	> 100 µM	> 100	> 100	> 67.6 µM	> 52.4												
O=C1C=CC(=O)c2c1cc1ccccc1c2O		30.9	24.5 µM	28.8 µM	26.6	11	41.3 µM	4.85		25.8										
S=C(Nc1ccc(Cl)cc1)SC1CCCCC1		39.9	30.5 µM		87.5	> 100	86.7 µM	> 100		> 100					40.6					
COc1cc2c(cc1OCc1ccccc1)N=C[C@@H]1C[C@@H](F)CN1C2=O			0.356 µM	3.48 µM	2.7	4.52	7.13 µM	> 100	0.265	1.09		0.279	0.156	0.275	2.32	1.5	0.236	1.49	1.92	0.5
CCOC(=O)C/C(N)=C(\C#N)C(=O)OCC	> 100 µM	> 100	> 100 µM	> 100 µM		> 100	> 100 µM	> 100												
O=S1c2ccccc2N=C(c2ccc3ccccc3c2)CC1c1ccccc1F (stereo not given)	> 100 µM	> 100	> 100 µM	79.7 µM	> 100	> 100	> 100 µM	> 100												
COc1cc(C2CC(=O)c3c(C)nn(-c4nc5ccccc5[nH]4)c3C2)cc(OC)c1OC (stereo not given)			> 100 µM	> 100 µM	> 100				> 100	> 100			> 100	> 100	> 100	7.06	3.61			
O=C(O)c1ccccc1-c1ccccc1C(=O)Nc1ccc2c(c1)Cc1ccccc1-2		50.7	31.6 µM	44 µM	> 100	> 100	38.1 µM			> 100					> 100					
OC1=CN=C(C2CC2)Oc2ccccc21	> 100 µM	> 100	> 100 µM	> 100 µM	> 100	> 100	> 100 µM	> 100												
CC(C)(C)C1CCP(=O)(c2ccccc2)CC1 (stereo not given)	> 100 µM	> 100	> 100 µM	> 100 µM	> 100	> 100	> 100 µM	> 100												

SMILES	TGI (HL-60(TB) leukemia)	TGI (SK-MEL-2 melanoma) [µM]	TGI (SK-MEL-5 melanoma)	TGI (A498 renal)	TGI (HOP-62 NSCLC) [µM]	TGI (TK-10 renal) [µM]	TGI (NCI-H460 lung)	TGI (K-562 leukemia) [µM]	GI50 (NCI/ADR-RES ovarian) [µM]	TGI (NCI/ADR-RES ovarian) [µM]	GI50 (HL-60(TB) leukemia) [µM]	GI50 (SK-MEL-2 melanoma) [µM]	GI50 (SK-MEL-5 melanoma) [µM]	GI50 (MCF7 breast) [µM]	TGI (MCF7 breast) [µM]	GI50 (A498 renal) [µM]	GI50 (HOP-62 NSCLC) [µM]	GI50 (TK-10 renal) [µM]	GI50 (NCI-H460 lung) [µM]	GI50 (K-562 leukemia) [µM]
Cc1cc(NS(=O)(=O)c2ccc(NC(=O)COc3ccc(-c4cc5ccccc5[nH]4)cc3)cc2)no1	32.6 µM	3.76	6.84 µM	6.58 µM	7.74	5.45		> 100	2.64	9.37	2.84	1.86	2.34	2.08	4.69	1.7	2.95	2.04		2.06
CC(N)CN.CC(N)CN.[Cl-].[O]=[Os+2]=[O] (stereo not given)		> 100	> 100 µM			> 100	> 100 µM					> 100	97.2					> 100	> 100	
COC(=O)[C@H]1CC(=O)C=C2CCCC21 (stereo not given in full)	> 100 µM	> 100	> 100 µM	> 100 µM	> 100	> 100	> 100 µM	> 100												
CC1=C(C(=O)Nc2cccc(C(F)(F)F)c2)C(c2ccccc2F)C(C(=O)Nc2cccc(C(F)(F)F)c2)=C(C)N1	7.98 µM	11	18 µM	24.3 µM	26.2	25.7	21.8 µM	18.6												
CC(=O)Nc1cc(C(c2ccccc2)c2ccccc2)cc(C(c2ccccc2)c2ccccc2)c1C	> 100 µM	> 100	> 100 µM	> 100 µM	> 100		> 100 µM	> 100	6.01	> 100	3.1	5.18	5.51	4.77	> 100	6.24	> 100		7.49	2.83
Cc1ccc(C)c(NC(=O)C(=O)CC(=O)c2cccc3ccccc23)c1	> 100 µM	> 100	> 100 µM	> 100 µM	> 100	> 100	> 100 µM	> 100												
CC(=O)C(CN(C)Cc1ccccc1)C(c1ccccc1)c1c(O)c2ccccc2oc1=O (stereo not given)	> 100 µM	> 100	> 100 µM	> 100 µM	> 100	> 100	> 100 µM	> 100												
COc1ccc2oc(-c3cc4cc(OC)ccc4o3)cc2c1	> 100 µM	> 100	> 100 µM		> 100	> 100	> 100 µM	> 100												
COc1ccc(C2c3cc4c(c(OC)c3CC3OCC(=O)C32)OCO4)cc1OC (stereo not given)	< 0.01 µM	> 100		> 100 µM		> 100	14.3 µM		< 0.01	28.4						< 0.01			< 0.01	
O=C(O)/C(=C/c1ccccc1[N+](=O)[O-])c1cccs1	> 100 µM	> 100	> 100 µM	> 100 µM	> 100	> 100	> 100 µM	> 100												
CC(=O)n1cc(CC(C)O)c(=O)[nH]c1=O (stereo not given)	> 100 µM	> 100	> 100 µM	> 100 µM	> 100	> 100	> 100 µM	> 100												
Cc1ccc(NC(C(=O)c2ccccc2)c2ccccc2)cc1 (stereo not given)	6.57 µM		14.5 µM	15.5 µM	39.1		11.8 µM	> 100	18.8	> 100	2.59		2.84	3.79	40.7	2.91	9.75		2.8	3.07
CC1(C)C(=O)CCC(=O)C(C)(C)C2=CC=C(O2)C(C)(C)C(=O)CCC(=O)C(C)(C)C2=CC=C1O2	> 100 µM	> 100		> 100 µM	> 100	> 100	> 100 µM	> 100												
Cc1cn(C2CC(N=[N+]=[N-])C(CO)O2)c(=O)[nH]c1=O (stereo not given)	> 1000 µM	> 1000	> 1000 µM		> 1000	> 1000		> 1000	296	> 1000		> 1000		50.1	> 1000		> 1000			
CC(C)(C)c1cc(Oc2ccc(C#N)c(C#N)c2)cc(C(C)(C)C)c1	> 100 µM	> 100	> 100 µM	> 100 µM	> 100	> 100	> 100 µM	> 100												
COc1cccc(C(C#N)NC23CC4CC(CC(C4)C2)C3)c1 (stereo not given)	> 100 µM	> 100	> 100 µM		> 100	> 100	> 100 µM	> 100		> 100					> 100					
O=[N+]([O-])c1ccc(N/N=C/c2ccccc2O)nc1		> 100	> 100 µM	> 100 µM	> 100	> 100	> 100 µM		0.373	> 100		3	1.61	0.928	> 100	63.4	4.5	3.43	1.02	
C/C(=C\CCc1ccsc1)CC/C=C(\C)CCCN1CCN(CCO)CC1	4.14 µM		2.97 µM	7.51 µM	6.4	7.34	3.79 µM	4.48	3.48	13.5	2.01		1.59	2.85	8.56	2.45	2.6	2.5	1.96	1.61
NC(=O)c1ccccc1NC(=O)C(=O)Nc1n[nH]c(N)n1	> 100 µM	> 100	> 100 µM	> 100 µM	> 100	> 100	> 100 µM	> 100												
CC[C@@]1(O)C(=O)OCc2c1cc1n(c2=O)Cc2cc3c(Cl)c4c(cc3nc2-1)OCO4	0.00518 µM and 0.0164 µM		0.0323 µM and 0.159 µM	0.309 µM and 1.19 µM		10.6	0.279 µM and 0.382 µM	> 100	< 0.001		< 0.001		< 0.001		0.193	0.00182	< 0.001		< 0.001	< 0.001
